EP4759815A1, “FUSED TRICYCLIC COMPOUND, PHARMACEUTICAL COMPOSITION THEREOF, AND USE THEREOF” (Haihe Biopharma Co., Ltd., priority 2023, dated 2025)
Like-named read-outs stand apart in the source and are kept apart here.

Columns and labels:
MDA-MB-436 cells = experiment: MDA-MB-436 cell proliferation inhibition test (CellTiter-Glo, 7 days); format: cell-based; conditions: Homo sapiens, MDA-MB-436, 168 h, 7 days incubation
[1] = molecular target: T1, recombinant human PARP2 protein (Homo sapiens, UniProt Q9UGN5); experiment: PARP2 inhibitory activity (histone substrate, chemiluminescent ELISA); format: biochemical
T1 construct: purchased BPS 80502
T1 sequence (Q9UGN5 whole entry): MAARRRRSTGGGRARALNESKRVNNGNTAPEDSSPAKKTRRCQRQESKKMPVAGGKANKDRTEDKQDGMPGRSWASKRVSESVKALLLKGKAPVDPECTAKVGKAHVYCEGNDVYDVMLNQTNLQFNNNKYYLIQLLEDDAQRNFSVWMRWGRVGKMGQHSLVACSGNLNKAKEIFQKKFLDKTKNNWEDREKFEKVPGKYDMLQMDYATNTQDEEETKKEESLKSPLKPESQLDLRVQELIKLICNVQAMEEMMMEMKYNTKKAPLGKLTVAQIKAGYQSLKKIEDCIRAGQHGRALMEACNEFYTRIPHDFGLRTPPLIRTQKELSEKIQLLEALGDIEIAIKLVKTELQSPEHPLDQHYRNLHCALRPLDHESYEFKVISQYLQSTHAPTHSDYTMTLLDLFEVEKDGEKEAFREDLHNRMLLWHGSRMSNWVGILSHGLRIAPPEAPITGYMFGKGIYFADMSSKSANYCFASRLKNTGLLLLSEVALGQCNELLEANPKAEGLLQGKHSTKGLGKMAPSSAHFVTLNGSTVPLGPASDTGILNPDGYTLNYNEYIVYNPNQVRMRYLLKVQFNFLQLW

PDE3A = molecular target: T2, PDE3A (Homo sapiens, UniProt Q14432); experiment: PDE3A enzyme activity test (IMAP FP); format: biochemical; conditions: PDE3A protein 0.2 nM, FAM-cAMP 200 nM, 60 minutes at rt; off-target safety
T2 construct: purchased ICE G13020203013
T2 sequence (Q14432 whole entry, species assumed): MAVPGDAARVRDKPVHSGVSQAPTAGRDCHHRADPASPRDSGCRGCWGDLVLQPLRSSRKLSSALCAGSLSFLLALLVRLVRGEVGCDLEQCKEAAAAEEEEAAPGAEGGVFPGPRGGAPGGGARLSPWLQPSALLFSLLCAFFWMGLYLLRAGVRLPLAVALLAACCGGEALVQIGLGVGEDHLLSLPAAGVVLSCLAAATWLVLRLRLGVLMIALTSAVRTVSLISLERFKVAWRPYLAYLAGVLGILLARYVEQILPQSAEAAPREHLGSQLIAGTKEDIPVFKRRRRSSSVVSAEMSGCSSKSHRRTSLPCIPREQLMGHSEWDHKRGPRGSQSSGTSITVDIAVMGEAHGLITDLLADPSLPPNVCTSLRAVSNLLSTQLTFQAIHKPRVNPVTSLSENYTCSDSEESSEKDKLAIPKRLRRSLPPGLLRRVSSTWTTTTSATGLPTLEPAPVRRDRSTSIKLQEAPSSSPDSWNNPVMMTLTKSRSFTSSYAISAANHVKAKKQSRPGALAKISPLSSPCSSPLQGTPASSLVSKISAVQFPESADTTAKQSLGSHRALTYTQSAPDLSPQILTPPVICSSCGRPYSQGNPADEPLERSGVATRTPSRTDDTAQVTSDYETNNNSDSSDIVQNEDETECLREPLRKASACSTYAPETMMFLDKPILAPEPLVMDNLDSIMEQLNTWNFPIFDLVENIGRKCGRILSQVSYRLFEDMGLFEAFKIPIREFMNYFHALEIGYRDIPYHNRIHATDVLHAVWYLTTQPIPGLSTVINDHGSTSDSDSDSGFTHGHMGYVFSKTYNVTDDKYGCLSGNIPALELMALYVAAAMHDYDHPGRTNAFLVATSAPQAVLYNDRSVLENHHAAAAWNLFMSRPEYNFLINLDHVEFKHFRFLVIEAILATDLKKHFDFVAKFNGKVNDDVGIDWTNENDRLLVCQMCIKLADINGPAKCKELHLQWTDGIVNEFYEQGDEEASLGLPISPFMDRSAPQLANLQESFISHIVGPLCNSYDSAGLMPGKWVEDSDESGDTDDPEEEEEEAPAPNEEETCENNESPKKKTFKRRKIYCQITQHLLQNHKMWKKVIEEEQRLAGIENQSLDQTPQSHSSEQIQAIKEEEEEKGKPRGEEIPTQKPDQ

[2] = molecular target: Recombinant human PARP1 protein (Homo sapiens, UniProt P09874); experiment: PARP1 inhibitory activity (histone substrate, chemiluminescent ELISA); format: biochemical; conditions: for PARP1/2 Fold selectivity: ratio of PARP2 IC50 to PARP1 IC50
Sequence of Recombinant human PARP1 protein (P09874 whole entry): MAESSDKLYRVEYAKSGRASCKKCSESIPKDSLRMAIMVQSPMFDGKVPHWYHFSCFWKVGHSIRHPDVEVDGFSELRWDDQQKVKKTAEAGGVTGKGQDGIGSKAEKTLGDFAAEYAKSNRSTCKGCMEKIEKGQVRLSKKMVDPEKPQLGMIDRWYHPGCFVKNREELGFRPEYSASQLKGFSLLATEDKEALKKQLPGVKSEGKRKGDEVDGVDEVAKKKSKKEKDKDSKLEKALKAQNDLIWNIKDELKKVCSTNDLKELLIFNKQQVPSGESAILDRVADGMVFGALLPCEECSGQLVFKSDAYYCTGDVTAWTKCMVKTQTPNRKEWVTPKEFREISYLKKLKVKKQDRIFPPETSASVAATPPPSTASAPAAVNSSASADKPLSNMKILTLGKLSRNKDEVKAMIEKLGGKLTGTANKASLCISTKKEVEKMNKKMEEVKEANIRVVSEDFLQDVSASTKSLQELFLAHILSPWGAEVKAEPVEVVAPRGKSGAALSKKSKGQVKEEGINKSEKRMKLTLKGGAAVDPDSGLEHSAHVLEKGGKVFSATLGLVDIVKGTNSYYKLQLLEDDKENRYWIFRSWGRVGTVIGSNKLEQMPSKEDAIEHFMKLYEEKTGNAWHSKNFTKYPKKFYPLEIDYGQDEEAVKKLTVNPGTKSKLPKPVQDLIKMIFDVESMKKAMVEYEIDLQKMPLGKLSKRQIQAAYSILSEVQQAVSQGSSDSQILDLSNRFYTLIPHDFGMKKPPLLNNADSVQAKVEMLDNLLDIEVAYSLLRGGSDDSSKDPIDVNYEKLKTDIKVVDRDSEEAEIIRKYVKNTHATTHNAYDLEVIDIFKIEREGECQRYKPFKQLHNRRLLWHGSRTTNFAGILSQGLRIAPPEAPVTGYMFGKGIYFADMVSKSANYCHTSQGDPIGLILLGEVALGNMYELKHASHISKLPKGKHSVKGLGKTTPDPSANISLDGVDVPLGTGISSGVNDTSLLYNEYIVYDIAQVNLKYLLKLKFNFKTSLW

[3] = Preliminary pharmacokinetic tests in mice; format: in vivo; conditions: male, ICR; for AUC(0-t) / clearance / half-life: mouse plasma; for bioavailability: plasma, oral, mouse, p.o.(5mg/kg) versus i.v.(1mg/kg)
[4] = Test of blood-brain barrier properties in rats; format: in vivo; conditions: male, Wistar Han, brain/plasma; rat, intravenous 1 mg/kg, after 4 h; read-out: Ratio % (brain/blood)
[5] = histone substrate, read-out: PARP2 IC50
[6] = histone substrate, 500 µM NAD+ added to the substrate solution, read-out: PARP1 IC50

| Compound | IC50 (MDA-MB-436 cells) | IC50 [1, 5] | IC50 [2, 6] | PARP1/2 Fold selectivity [2] | also measured |
| --- | --- | --- | --- | --- | --- |
| CNC(=O)c1ccc(N2CCN(Cc3cc4c5c(cnn5c3)N(C3CC3)C(=O)N4)CC2)c(C)n1 [Compound 54] | < 1.52 nM | 45.2 nM | 0.4 nM | 21.1 | IC50 (PDE3A): 428 nM |
| CNC(=O)c1ccc(N2CCN(Cc3cc4c5c(c3)ncn5[C@H](C3CC3)C(=O)N4)CC2)c(C)n1 [Compound 49-2] | 18 nM | 431 nM | 1.53 nM | 281.5 | IC50 (PDE3A): > 10000 nM |
| CC1C(=O)Nc2cc(CN3CCN(c4ccc(C#N)cn4)CC3)cc3cnn1c23 (stereo not shown) [Compound 35] | 213 nM |  |  |  |  |
| CNC(=O)c1ccc(N2CCN(Cc3cc4c5c(cnn5c3)N(C(C)C)C(=O)N4)CC2)c(F)n1 [Compound 55] |  | 1010 nM | 2.64 nM | 382 |  |
| CCC1C(=O)Nc2cc(CN3CCN(c4ccc(C(=O)NC)nc4F)CC3)cc3cnn1c23 (stereo not shown) [Compound 5] | 15.4 nM |  | 0.78 nM |  |  |
| CNC(=O)c1ccc(N2CCN(Cc3cc4c5c(c3)ncn5[C@@H](C3CC3)C(=O)N4)CC2)c(C)n1 [Compound 49-1] | 20.4 nM | 1310 nM | 0.71 nM | 1852 |  |
| CNC(=O)c1ccc(N2CCN(Cc3cc4c5c(cnn5c3)N(C3CC3)C(=O)N4)CC2)c(F)n1 [Compound 53] | 2.2 nM | 45.5 nM | 2.16 nM | 21.1 |  |
| CNC(=O)c1ccc(N2CCN(Cc3cc4c5c(c(C(F)(F)F)nn5c3)N(C)C(=O)N4)CC2)c(C)n1 [Compound 58] | 1.2 nM | 204 nM | 0.99 nM | 206 |  |
| CCCN1C(=O)Nc2cc(CN3CCN(c4ccc(C(=O)NC)nc4C)CC3)cn3ncc1c23 [Compound 62] | 20.9 nM | 1400 nM | 3.3 nM | 422.3 |  |
| CNC(=O)c1ccc(N2CCN(Cc3cc4c5c(cnn5c3)N(C(C)C)C(=O)N4)CC2)c(C)n1 [Compound 56] | 15 nM | 1220 nM | 3.34 nM | 364.5 | IC50 (PDE3A): 878 nM |
| CCN1C(=O)Nc2cc(CN3CCN(c4ccc(C(=O)NC)nc4Cl)CC3)cn3ncc1c23 [Compound 34] | 2.3 nM |  |  |  |  |
| CNC(=O)c1ccc(N2CCN(Cc3cc4c5c(cnn5C5(CC5)C(=O)N4)c3)CC2)c(Cl)n1 [Compound 38] | < 1.52 nM |  |  |  |  |
| CNC(=O)c1ccc(N2CCN(Cc3cc4c5c(cnn5[C@H](C5CC5)C(=O)N4)c3)CC2)c(Cl)n1 [Compound 43-2] | 1.7 nM | 139 nM | 1.04 nM | 133.3 |  |
| CNC(=O)c1ccc(N2CCN(Cc3cc4c5c(cnn5c3)N(CC3CCC3)C(=O)N4)CC2)c(C)n1 [Compound 69] | 720 nM |  |  |  |  |
| CCN1C(=O)Nc2cc(CN3CCN(c4ccc(C(=O)NC)nc4F)CC3)cc3c2c1nn3C [Compound B1, 5-(4-((3-ethyl-1-methyl-4-oxo-1,3,4,5-tetrahydropyrazolo[3,4,5-d]quinazolin-7-yl)methyl)piperazine-1-yl)-6-fluoro-N-methylpicolinamide, reference compound] |  |  |  | 2.64 | IC50 [1]: 3.7 nM; IC50 [2]: 1.4 nM |
| CNC(=O)c1ccc(N2CCN(Cc3cc4c5c(c(C)nn5c3)N(C)C(=O)N4)CC2)c(C)n1 [Compound 57] | 1.3 nM |  |  |  |  |
| CNC(=O)c1ccc(N2CCN(Cc3cn4ncc5c4c(c3C)NC(=O)N5C3CC3)CC2)c(C)n1 [Compound 66] | 48.1 nM | 1380 nM | 3.3 nM | 417.5 |  |
| CNC(=O)c1ccc(N2CCN(Cc3cc4c5c(cnn5[C@H](C)C(=O)N4)c3)CC2)c(Cl)n1 [Compound 6-2] |  |  |  |  | IC50 (PDE3A): 239 nM |
| CNC(=O)c1ccc(N2CCN(Cc3cc4c5c(cnn5c3)N(C3CCC3)C(=O)N4)[C@H](C)C2)c(Cl)n1 [Compound 80] | 18.7 nM |  |  |  |  |
| CCC1C(=O)Nc2cc(CN3CCN(c4ccc(C(=O)NC)nc4Cl)CC3)cc3cnn1c23 (stereo not shown) [Compound 8] | 12.7 nM |  |  |  |  |
| CNC(=O)c1ccc(N2CCN(Cc3cc4c5c(cnn5c3)NC(=O)N4)CC2)c(C)n1 [Compound 64] | 17.5 nM |  |  |  |  |
| CNC(=O)c1ccc(N2CCN(Cc3cc4c5c(cnn5c3)N(CCO)C(=O)N4)CC2)c(C)n1 [Compound 63] | 16.8 nM | 1830 nM | 2.1 nM | 827.4 |  |

| Compound | IC50 (MDA-MB-436 cells) | IC50 [1, 5] | IC50 [2, 6] | PARP1/2 Fold selectivity [2] | also measured |
| --- | --- | --- | --- | --- | --- |
| CNC(=O)c1ccc(N2CCN(Cc3cc4c5c(cnn5c3)N(CC(C)O)C(=O)N4)CC2)c(C)n1 (stereo not shown) [Compound 67] | 392 nM |  |  |  |  |
| CNC(=O)c1ccc(N2CCN(Cc3cc4c5c(cnn5CC(=O)N4)c3)CC2)c(Cl)n1 [Compound 26] |  | 1440 nM | 0.28 nM | 5150 |  |
| CNC(=O)c1ccc(N2CCN(Cc3cc4c5c(cnn5c3)N(C3CCC3)C(=O)N4)C[C@H]2C)c(C)n1 [Compound 72] |  | 474 nM | 4.9 nM | 97.6 |  |
| CNC(=O)c1ccc(N2CCN(Cc3cc4c5c(c3)ncn5C(C3CCC3)C(=O)N4)CC2)c(Cl)n1 (stereo not shown) [Compound 81] | 4.6 nM | 2410 nM | 4.2 nM | 574.1 |  |
| CNC(=O)c1ccc(N2CCN(Cc3cc4c5c(cnn5c3)N(C3CCC3)C(=O)N4)CC2)c(Cl)n1 [Compound 73] | 3.2 nM |  |  |  |  |
| CCN1C(=O)Nc2cc(CN3CCN(c4ccc(C(=O)NC)nc4F)CC3)cn3ncc1c23 [Compound 33] | < 1.52 nM |  |  |  |  |
| CNC(=O)c1ccc(N2CCN(Cc3cc4c5c(cnn5c3)N(C3CCC3)C(=O)N4)CC2)c(C)n1 [Compound 59] | 6.5 nM |  |  |  | IC50 (PDE3A): > 10000 nM |
| CCN1C(=O)Nc2cc(CN3CCN(c4ccc(C(=O)NC)nc4C)CC3)cn3ncc1c23 [Compound 30] | 2.7 nM | 211 nM | 1.24 nM | 170.8 |  |
| CNC(=O)c1ccc(N2CCN(Cc3cc4c5c(c3)ncn5[C@@H](C3CC3)C(=O)N4)CC2)c(Cl)n1 [Compound 47-1] | 20.2 nM | 901 nM | 0.68 nM | 1326 | IC50 (PDE3A): > 10000 nM |
| CNC(=O)c1ccc(N2CCN(Cc3cc4c5c(cnn5C5(CC5)C(=O)N4)c3)CC2)c(F)n1 [Compound 37] | < 1.52 nM | 8.7 nM | 0.24 nM | 36.3 |  |
| CC[C@@H]1C(=O)Nc2cc(CN3CCN(c4ccc(C(=O)NC)nc4F)CC3)cc3cnn1c23 [Compound 5-2] | 14.8 nM |  | 1.03 nM |  | IC50 (PDE3A): > 10000 nM |
| CNC(=O)c1ccc(N2CCN(Cc3cc4c5c(cnn5C(C)C(=O)N4)c3)CC2)c(Cl)n1 (stereo not shown) [Compound 6] |  |  |  |  | AUC(0-t) ([3]; iv, i.v.(1mg/kg)): 5030 ng·h/mL; clearance ([3]; iv, i.v.(1mg/kg)): 3.3 mL/min/kg; half-life ([3]; iv, i.v.(1mg/kg)): 78 min; bioavailability [3]: 117%; AUC(0-t) ([3]; po, p.o.(5mg/kg)): 28700 ng·h/mL; half-life ([3]; po, p.o.(5mg/kg)): 162 min |
| CNC(=O)c1ccc(N2CCN(Cc3cc4c5c(c3)ncn5[C@H](C3CC3)C(=O)N4)CC2)c(Cl)n1 [Compound 47-2] | 16.7 nM | 281 nM | 1.21 nM | 232.5 | IC50 (PDE3A): > 10000 nM |
| CNC(=O)c1ccc(N2CCN(Cc3cc4c5c(cnn5c3)N(C3CCC3)C(=O)N4)[C@H](C)C2)c(C)n1 [Compound 79] | 21.8 nM |  |  |  |  |
| CNC(=O)c1ccc(N2CCN(Cc3cc4c5c(cnn5C5(CC5)C(=O)N4)c3)CC2)c(C)n1 [Compound 39] | < 1.52 nM |  |  |  |  |
| CC[C@H]1C(=O)Nc2cc(CN3CCN(c4ccc(C(=O)NC)nc4F)CC3)cc3cnn1c23 [Compound 5-1] | 27.4 nM |  | 1.35 nM |  |  |
| CNC(=O)c1ccc(N2CCN(Cc3cc4c5c(cnn5C5(CC5)C(=O)N4)c3)C[C@H]2C)c(C)n1 [Compound 40] | 17.9 nM | 81 nM | 0.23 nM | 353.6 | AUC(0-t) ([3]; iv, i.v.(1mg/kg)): 4410 ng·h/mL; clearance ([3]; iv, i.v.(1mg/kg)): 3.8 mL/min/kg; half-life ([3]; iv, i.v.(1mg/kg)): 216 min; bioavailability [3]: 124%; AUC(0-t) ([3]; po, p.o.(5mg/kg)): 31100 ng·h/mL; half-life ([3]; po, p.o.(5mg/kg)): 186 min; IC50 (PDE3A): 635 nM |
| CNC(=O)c1ccc(N2CCN(Cc3cc4c5c(cnn5c3)N(CC(F)(F)F)C(=O)N4)CC2)c(C)n1 [Compound 61] | 16.2 nM |  |  |  | IC50 (PDE3A): 1440 nM |
| CNC(=O)c1ccc(N2CCN(Cc3cc4cnn5c4c(c3F)NC(=O)C53CC3)CC2)c(Cl)n1 [Compound 41] | 4.4 nM | 71.9 nM | 0.1 nM | 719 |  |
| CNC(=O)c1ccc(N2CCN(Cc3cc4c5c(cnn5[C@@H](C5CC5)C(=O)N4)c3)CC2)c(Cl)n1 [Compound 43-1] | 8.7 nM | 575 nM | 1.67 nM | 344.5 |  |
| CNC(=O)c1ccc(N2CCN(Cc3cc4c5c(cnn5c3)N(C)C(=O)N4)CC2)c(C)n1 [Compound 19] | < 1.52 nM | 732 nM | 1.42 nM | 516 | IC50 (PDE3A): 433 nM |
| CNC(=O)c1ccc(N2CCN(Cc3cc4c5c(cnn5C(C)C(=O)N4)c3)CC2)c(C)n1 (stereo not shown) [Compound 7] |  |  |  |  | Kp at 4 h [4]: 0.138 |
